In EPA's ToxRefDB 2:

Tests used:
rat [1] = conditions: Combined chronic toxicity/carcinogenicity; sprague dawley; Oral; Feed; dose end: 2 year; group: systemic; systemic / in life observation / body weight / body weight + systemic / in life observation / body weight / body weight gain + systemic / in…
rat [2] = conditions: Neurotoxicity screening battery, other, Oral, Feed, dose end: 90 day, group: cannot be grouped
mouse [3] = conditions: Subchronic oral toxicity in rodents, b6c3f1, Feed, dose end: 90 day, group: systemic, systemic / organ weight / liver / absolute + systemic / organ weight / liver / relative to body weight + systemic / organ weight / liver / …
rat [4] = conditions: Sub-acute repeat dose toxicity; other; Oral; Feed; dose end: 28 day; group: systemic; systemic / clinical chemistry / glucose / glucose + systemic / in life observation / body weight / body weight + systemic / in life …
mouse [5] = conditions: Sub-acute repeat dose toxicity, b6c3f1, Oral, Feed, dose end: 28 day, group: systemic
rat [6] = conditions: Prenatal developmental toxicity study, sprague dawley, Dermal, Topical, dose end: 15 GD, group: maternal
mouse [7] = conditions: Combined chronic toxicity/carcinogenicity, b6c3f1, Oral, Feed, dose end: 18 month, group: systemic
dog = conditions: Subchronic oral toxicity in nonrodent, beagle, Feed, dose end: 13 week, group: systemic
rat [8] = conditions: Prenatal developmental toxicity study, sprague dawley, Dermal, Topical, dose end: 15 GD
rat [9] = conditions: Subchronic dermal toxicity, other, Topical, dose end: 90 day, group: systemic, systemic / pathology gross / skin / lesion(s) (nos)
rat [10] = conditions: Prenatal developmental toxicity study, sprague dawley, Oral, Gavage/Intubation, dose end: 19 GD
rat [11] = conditions: Sub-acute dermal toxicity, Sprague-Dawley, Topical, dose end: 29 day, group: systemic, systemic / in life observation / clinical signs / anogenital staining
rat [12] = conditions: Subchronic oral toxicity in rodents, sprague dawley, Feed, dose end: 13 week, group: systemic
rat [13] = conditions: Subchronic inhalation toxicity, sprague dawley, Nose-Only, dose end: 90 day, group: systemic, systemic / pathology microscopic / nose / degeneration + systemic / pathology microscopic / nose / hyperkeratosis + systemic / pathology …
[14] = systemic / in life observation / body weight / body weight + systemic / in life observation / body weight / body weight gain + systemic / in…
[15] = systemic / pathology microscopic / kidney / hypertrophy
[16] = systemic / pathology microscopic / kidney / hypertrophy + systemic / in life observation / mortality / mortality
[17] = reproductive / reproductive performance / aborted / aborted + reproductive / reproductive performance / resorptions / resorptions + systemic…
[18] = systemic / in life observation / clinical signs / desquamation + systemic / in life observation / clinical signs / urine, discoloration
[19] = systemic / pathology microscopic / liver / hepatocellular adenoma + systemic / pathology microscopic / liver / hepatocellular carcinoma + …
[20] = systemic / hematology / platelet / platelet
[21] = systemic / hematology / platelet / platelet + systemic / in life observation / body weight / body weight gain + systemic / clinical …
[22] = group: developmental, developmental / developmental malformation / bone / absent + developmental / developmental malformation / bone / fused + developmental / …
[23] = group: maternal, reproductive / reproductive performance / resorptions / resorptions + systemic / in life observation / body weight / body weight gain + …
[24] = group: maternal, systemic / in life observation / clinical signs / desquamation
[25] = group: developmental, systemic / in life observation / body weight / fetal weight
[26] = group: developmental, systemic / in life observation / body weight / fetal weight + developmental / developmental malformation / bone / bipartite ossification + …
[27] = group: maternal, systemic / in life observation / clinical signs / salivation
[28] = group: maternal, systemic / in life observation / clinical signs / salivation + reproductive / reproductive performance / resorptions / resorptions + …
[29] = systemic / pathology microscopic / spinal cord / vacuolization + systemic / pathology microscopic / brain / vacuolization
[30] = systemic / pathology microscopic / spinal cord / vacuolization + systemic / pathology microscopic / brain / vacuolization + systemic / organ…

How did the LEL (rat [1]) turn out when `CN1CCCC1=O` [N-Methyl-2-pyrrolidone] was run?
The LEL was 678 mg/kg/day.

And the LOAEL (rat [1])?
The LOAEL was greater than 678 mg/kg/day.

And the NEL (rat [1])?
The NEL was 207 mg/kg/day.

And the NOAEL (rat [1])?
Its NOAEL is no less than 678 mg/kg/day.

What about the LOAEL (rat [2]; systemic / in life observation / body weight / body weight + systemic / in life observation / body weight / body weight gain) of the same molecule?
Its LOAEL is 433 mg/kg/day.

And the LEL (rat [2]; [14])?
Its LEL is 433 mg/kg/day.

And the NEL (rat [2]; [14])?
Its NEL is 169 mg/kg/day.

And the NOAEL (rat [2]; [14])?
Its NOAEL is 169 mg/kg/day.

And the LEL (mouse [3])?
The LEL was 619 mg/kg/day.

And the LOAEL (mouse [3])?
Its LOAEL is 619 mg/kg/day.

And the NEL (mouse [3])?
The NEL was 277 mg/kg/day.

And the NOAEL (mouse [3])?
The NOAEL was 277 mg/kg/day.

And the LEL (rat [4])?
Its LEL is 1230 mg/kg/day.

And the LOAEL (rat [4])?
Its LOAEL is 1230 mg/kg/day.

What about the NEL (rat [4]) of the same molecule?
The NEL was 429 mg/kg/day.

What about the NOAEL (rat [4]) of the same molecule?
The NOAEL was 429 mg/kg/day.

What about the LEL (mouse [5]; [15]) of the same molecule?
The LEL was 2130 mg/kg/day.

What about the LOAEL (mouse [5]; [15]) of the same molecule?
Its LOAEL is 2130 mg/kg/day.

And the NEL (mouse [5]; [16])?
Its NEL is 720 mg/kg/day.

And the NOAEL (mouse [5]; [16])?
Its NOAEL is 720 mg/kg/day.

And the LOAEL (rat [6]; [17])?
Its LOAEL is greater than 2500 mg/kg/day.

What about the NOAEL (rat [6]; [17]) of the same molecule?
The NOAEL was no less than 2500 mg/kg/day.

What about the LEL (rat [6]; [18]) of the same molecule?
Its LEL is 500 mg/kg/day.

And the NEL (rat [6]; [18])?
The NEL was less than 500 mg/kg/day.

And the LEL (mouse [7]; systemic / organ weight / liver / absolute + systemic / organ weight / liver / relative to body weight + systemic / pathology microscopic / …)?
The LEL was 173 mg/kg/day.

What about the LOAEL (mouse [7]; [19]) of the same molecule?
Its LOAEL is greater than 1090 mg/kg/day.

What about the NEL (mouse [7]; [19]) of the same molecule?
The NEL was 89 mg/kg/day.

What about the NOAEL (mouse [7]; [19]) of the same molecule?
The NOAEL was no less than 1090 mg/kg/day.

And the LEL (dog; [20])?
Its LEL is 25 mg/kg/day.

What about the NEL (dog; [20]) of the same molecule?
Its NEL is less than 25 mg/kg/day.

And the LOAEL (dog; [21])?
Its LOAEL is greater than 250 mg/kg/day.

What about the NOAEL (dog; [21]) of the same molecule?
Its NOAEL is no less than 250 mg/kg/day.

And the LEL (rat [8]; [22])?
The LEL was 750 mg/kg/day.

What about the LOAEL (rat [8]; [22]) of the same molecule?
Its LOAEL is greater than 750 mg/kg/day.

And the NEL (rat [8]; [22])?
Its NEL is 237 mg/kg/day.

And the NOAEL (rat [8]; [22])?
Its NOAEL is no less than 750 mg/kg/day.

And the LOAEL (rat [8]; [23])?
Its LOAEL is greater than 750 mg/kg/day.

And the NOAEL (rat [8]; [23])?
Its NOAEL is no less than 750 mg/kg/day.

And the LEL (rat [8]; [24])?
The LEL was 75 mg/kg/day.

What about the NEL (rat [8]; [24]) of the same molecule?
The NEL was less than 75 mg/kg/day.

For `N#Cc1c(-c2ccc(Cl)cc2)[nH]c(C(F)(F)F)c1Br` [Tralopyril], which LEL (rat [9]) is on record?
Its LEL is 300 mg/kg/day.

And the LOAEL (rat [9])?
Its LOAEL is 300 mg/kg/day.

And the NEL (rat [9])?
The NEL was 100 mg/kg/day.

What about the NOAEL (rat [9]) of the same molecule?
The NOAEL was 100 mg/kg/day.

And the LEL (rat [10]; [25])?
Its LEL is 10 mg/kg/day.

What about the LOAEL (rat [10]; [25]) of the same molecule?
The LOAEL was 10 mg/kg/day.

And the NEL (rat [10]; [26])?
Its NEL is 5 mg/kg/day.

And the NOAEL (rat [10]; [26])?
The NOAEL was 5 mg/kg/day.

What about the LEL (rat [10]; [27]) of the same molecule?
Its LEL is 10 mg/kg/day.

And the LOAEL (rat [10]; [27])?
Its LOAEL is 10 mg/kg/day.

And the NEL (rat [10]; [28])?
The NEL was 5 mg/kg/day.

And the NOAEL (rat [10]; [28])?
Its NOAEL is 5 mg/kg/day.

And the LEL (rat [11])?
The LEL was 1000 mg/kg/day.

And the LOAEL (rat [11])?
Its LOAEL is greater than 1000 mg/kg/day.

What about the NEL (rat [11]) of the same molecule?
Its NEL is 300 mg/kg/day.

And the NOAEL (rat [11])?
Its NOAEL is no less than 1000 mg/kg/day.

What about the LOAEL (rat [12]; [29]) of the same molecule?
The LOAEL was 6.3 mg/kg/day.

What about the NOAEL (rat [12]; [29]) of the same molecule?
The NOAEL was less than 6.3 mg/kg/day.

What about the LEL (rat [12]; [30]) of the same molecule?
Its LEL is 6.3 mg/kg/day.

And the NEL (rat [12]; [30])?
The NEL was less than 6.3 mg/kg/day.

What about the LEL (rat [13]) of the same molecule?
Its LEL is 1.4 ppm.

And the LOAEL (rat [13])?
The LOAEL was 1.4 ppm.

And the NEL (rat [13])?
Its NEL is less than 1.4 ppm.

And the NOAEL (rat [13])?
Its NOAEL is less than 1.4 ppm.
